Laboratory results taken from ChEMBL document CHEMBL1240489, “Discovery of N-{1-[3-(3-oxo-2,3-dihydrobenzo[1,4]oxazin-4-yl)propyl]piperidin-4-yl}-2-phenylacetamide (Lu AE51090): an allosteric muscarinic M1 receptor agonist with unprecedented selectivity and procognitive potential” (J Med Chem, 2010).
pKi: −log10 of the molar value. Activity calls are given as the source filed them. The rule behind the calls is not given here.

Legend:
Nischarin = Nischarin (Homo sapiens, UniProt Q9Y2I1); test: Binding affinity to I1 receptor by radioligand displacement assay
Mus musculus = test: Reversal of 60 seconds delay-induced memory decay in C57Bl/6J mouse assessed as positive alteration at 10 to 20 mg/kg, sc for 1 week by Y-maze test; type: functional, organism-based
Rattus norvegicus = organism: Rattus norvegicus; test: Hepatic blood flow in rat; type: ADME, organism-based, Liver
[1] = Tmax in rat plasma at 2 mg/kg, po; type: ADME, organism-based; design: dose 2 mg/kg, route oral
[2] = Binding affinity to GABAA receptor by radioligand displacement assay
Substance-K receptor = Substance-K receptor (Homo sapiens, UniProt P21452); test: Binding affinity to human NK2 receptor by radioligand displacement assay
[3] = target: T1, Muscarinic acetylcholine receptor M4 (Homo sapiens) (UniProt P08173); test: Agonist activity at human muscarinic M4 receptor expressed in BHK-21 cells coexpressing Galpha16 subunit assessed as increase of acetylcholine-induced calcium flux at 10 uM by FLIPR assay relative to acetylcholine; type: functional, cell-based
T1 sequence (whole entry): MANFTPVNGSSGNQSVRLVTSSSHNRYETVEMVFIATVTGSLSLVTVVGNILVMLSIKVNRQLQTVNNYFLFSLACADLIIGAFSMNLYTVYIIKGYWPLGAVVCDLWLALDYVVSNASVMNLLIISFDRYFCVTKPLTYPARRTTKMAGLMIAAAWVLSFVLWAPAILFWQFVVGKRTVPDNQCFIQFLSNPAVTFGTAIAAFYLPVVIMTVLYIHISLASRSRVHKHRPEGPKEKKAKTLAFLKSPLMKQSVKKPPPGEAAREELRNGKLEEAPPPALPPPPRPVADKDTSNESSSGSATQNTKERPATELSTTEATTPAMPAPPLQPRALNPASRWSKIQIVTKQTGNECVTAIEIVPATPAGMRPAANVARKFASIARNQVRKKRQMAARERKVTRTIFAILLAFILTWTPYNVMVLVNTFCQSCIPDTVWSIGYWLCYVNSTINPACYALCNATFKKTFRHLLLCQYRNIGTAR

Melanocortin receptor 4 = Melanocortin receptor 4 (Homo sapiens, UniProt P32245); test: Binding affinity to human MC4 receptor by radioligand displacement assay
[4] = target: T2, Muscarinic acetylcholine receptor M4 (Homo sapiens, UniProt P08173); test: Displacement of [3H]-4-DAMP from human muscarinic M4 receptor expressed in BHK-21 cells; type: cell-based
T2 sequence (P08173 whole entry): T1 sequence (whole entry)

[5] = Protein binding in rat plasma at 0.1 uM after 60 mins by LC/MS-MS analysis; type: ADME, cell-free; details: read-out: PPB (converted)
[6] = target: Muscarinic acetylcholine receptor M3 (Homo sapiens, UniProt P20309); test: Agonist activity at human muscarinic M3 receptor expressed in BHK-21 cells assessed as increase of acetylcholine-induced calcium flux at 10 uM by FLIPR assay relative to acetylcholine; type: functional, cell-based
[7] = target: Amine oxidase [flavin-containing] A (Homo sapiens, UniProt P21397); test: Binding affinity to MAOA by radioligand displacement assay
[8] = target: T3, Muscarinic acetylcholine receptor M2 (Homo sapiens) (UniProt P08172); test: Agonist activity at human muscarinic M2 receptor expressed in CHO-K1 cells coexpressing Galpha16 subunit assessed as increase of acetylcholine-induced calcium flux at 10 uM by FLIPR assay relative to acetylcholine; type: functional, cell-based
T3 sequence (whole entry): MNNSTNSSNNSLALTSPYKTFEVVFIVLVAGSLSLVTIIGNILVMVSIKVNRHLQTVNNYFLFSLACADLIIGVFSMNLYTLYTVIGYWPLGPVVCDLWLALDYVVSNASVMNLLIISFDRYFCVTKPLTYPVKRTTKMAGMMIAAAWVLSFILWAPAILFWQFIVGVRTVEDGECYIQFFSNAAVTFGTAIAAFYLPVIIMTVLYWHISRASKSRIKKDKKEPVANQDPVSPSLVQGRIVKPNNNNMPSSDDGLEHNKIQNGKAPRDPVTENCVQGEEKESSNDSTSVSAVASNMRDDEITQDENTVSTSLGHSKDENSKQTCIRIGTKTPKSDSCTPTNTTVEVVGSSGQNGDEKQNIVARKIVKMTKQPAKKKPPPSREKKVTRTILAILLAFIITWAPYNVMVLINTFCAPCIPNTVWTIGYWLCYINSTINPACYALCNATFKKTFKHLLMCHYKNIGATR

[9] = Binding affinity to sigma receptor by radioligand displacement assay
[10] = target: 5-hydroxytryptamine receptor 2A (Homo sapiens, UniProt P28223); test: Binding affinity to human 5-HT2A agonist site receptor by radioligand displacement assay
Hepatocyte = test: Intrinsic clearance in human hepatocytes at 1 uM after up to 120 mins by LC/MS-MS analysis; type: ADME, cell-based, Liver; details: 2 h
[11] = target: T4, Muscarinic acetylcholine receptor M5 (Homo sapiens) (UniProt P08912); test: Agonist activity at human muscarinic M5 receptor expressed in BHK-21 cells assessed as increase of acetylcholine-induced calcium flux at 10 uM by FLIPR assay relative to acetylcholine; type: functional, cell-based
T4 sequence (whole entry): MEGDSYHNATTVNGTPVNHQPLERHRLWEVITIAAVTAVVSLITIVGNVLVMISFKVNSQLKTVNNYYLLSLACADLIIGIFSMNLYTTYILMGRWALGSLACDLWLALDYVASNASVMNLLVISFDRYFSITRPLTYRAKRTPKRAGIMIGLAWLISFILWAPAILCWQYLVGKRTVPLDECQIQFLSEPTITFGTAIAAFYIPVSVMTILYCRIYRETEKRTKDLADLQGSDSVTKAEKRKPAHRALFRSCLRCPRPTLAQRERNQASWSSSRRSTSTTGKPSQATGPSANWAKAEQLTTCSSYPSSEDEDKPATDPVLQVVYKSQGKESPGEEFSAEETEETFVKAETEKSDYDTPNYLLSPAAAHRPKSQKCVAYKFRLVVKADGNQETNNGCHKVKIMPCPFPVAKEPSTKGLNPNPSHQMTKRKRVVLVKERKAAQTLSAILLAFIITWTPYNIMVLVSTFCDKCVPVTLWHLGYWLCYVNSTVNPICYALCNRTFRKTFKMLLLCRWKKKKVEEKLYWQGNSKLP

[12] = Binding affinity to Ca2+ channel by radioligand displacement assay
Substance-P receptor = Substance-P receptor (Homo sapiens, UniProt P25103); test: Binding affinity to human NK1 receptor by radioligand displacement assay
[13] = Ratio of brain to plasma AUC in Sprague-Dawley rat at 10 mg/kg, sc; type: ADME, organism-based; design: dose 10 mg/kg, route subcutaneous
[14] = target: Alpha-1B adrenergic receptor (Homo sapiens, UniProt P35368); test: Binding affinity to human adrenergic Alpha-1B receptor by radioligand displacement assay
[15] = target: Alpha-2A adrenergic receptor (Homo sapiens, UniProt P08913); test: Binding affinity to human adrenergic alpha2A receptor by radioligand displacement assay
[16] = Binding affinity to human Ca2+ channel diltiazem site by radioligand displacement assay
[17] = Binding affinity to central benzodiazepine receptor by radioligand displacement assay
[18] = target: Neuropeptide Y receptor type 1 (Homo sapiens, UniProt P25929); test: Binding affinity to human neuropeptide Y1 receptor by radioligand displacement assay
Neuropeptide Y receptor type 1, sequence (P25929 whole entry): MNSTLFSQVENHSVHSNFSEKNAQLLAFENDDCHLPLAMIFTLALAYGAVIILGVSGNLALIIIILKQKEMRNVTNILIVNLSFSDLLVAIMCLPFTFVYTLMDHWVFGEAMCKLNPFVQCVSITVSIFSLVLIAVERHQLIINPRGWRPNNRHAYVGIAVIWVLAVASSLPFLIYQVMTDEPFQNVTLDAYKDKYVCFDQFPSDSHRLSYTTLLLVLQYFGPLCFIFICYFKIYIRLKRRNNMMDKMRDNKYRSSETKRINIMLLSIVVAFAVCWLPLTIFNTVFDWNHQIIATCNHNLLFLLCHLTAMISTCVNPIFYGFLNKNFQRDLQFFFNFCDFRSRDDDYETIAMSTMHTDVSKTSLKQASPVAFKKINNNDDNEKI

Alpha-1B adrenergic receptor, sequence (P35368 whole entry): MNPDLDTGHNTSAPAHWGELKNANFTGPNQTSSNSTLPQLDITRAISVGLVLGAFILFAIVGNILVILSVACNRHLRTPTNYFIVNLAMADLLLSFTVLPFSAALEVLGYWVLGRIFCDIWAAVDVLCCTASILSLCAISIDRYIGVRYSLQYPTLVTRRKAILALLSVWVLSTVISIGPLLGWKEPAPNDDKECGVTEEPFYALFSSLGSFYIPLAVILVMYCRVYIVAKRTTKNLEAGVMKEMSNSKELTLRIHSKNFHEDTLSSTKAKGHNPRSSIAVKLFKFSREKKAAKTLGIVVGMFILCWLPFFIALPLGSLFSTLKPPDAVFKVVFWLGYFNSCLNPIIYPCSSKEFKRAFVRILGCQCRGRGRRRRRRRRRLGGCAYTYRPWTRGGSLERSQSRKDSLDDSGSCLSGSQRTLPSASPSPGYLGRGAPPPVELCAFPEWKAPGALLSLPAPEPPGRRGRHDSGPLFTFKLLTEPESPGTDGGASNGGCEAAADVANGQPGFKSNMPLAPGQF
Nischarin, sequence (Q9Y2I1 whole entry): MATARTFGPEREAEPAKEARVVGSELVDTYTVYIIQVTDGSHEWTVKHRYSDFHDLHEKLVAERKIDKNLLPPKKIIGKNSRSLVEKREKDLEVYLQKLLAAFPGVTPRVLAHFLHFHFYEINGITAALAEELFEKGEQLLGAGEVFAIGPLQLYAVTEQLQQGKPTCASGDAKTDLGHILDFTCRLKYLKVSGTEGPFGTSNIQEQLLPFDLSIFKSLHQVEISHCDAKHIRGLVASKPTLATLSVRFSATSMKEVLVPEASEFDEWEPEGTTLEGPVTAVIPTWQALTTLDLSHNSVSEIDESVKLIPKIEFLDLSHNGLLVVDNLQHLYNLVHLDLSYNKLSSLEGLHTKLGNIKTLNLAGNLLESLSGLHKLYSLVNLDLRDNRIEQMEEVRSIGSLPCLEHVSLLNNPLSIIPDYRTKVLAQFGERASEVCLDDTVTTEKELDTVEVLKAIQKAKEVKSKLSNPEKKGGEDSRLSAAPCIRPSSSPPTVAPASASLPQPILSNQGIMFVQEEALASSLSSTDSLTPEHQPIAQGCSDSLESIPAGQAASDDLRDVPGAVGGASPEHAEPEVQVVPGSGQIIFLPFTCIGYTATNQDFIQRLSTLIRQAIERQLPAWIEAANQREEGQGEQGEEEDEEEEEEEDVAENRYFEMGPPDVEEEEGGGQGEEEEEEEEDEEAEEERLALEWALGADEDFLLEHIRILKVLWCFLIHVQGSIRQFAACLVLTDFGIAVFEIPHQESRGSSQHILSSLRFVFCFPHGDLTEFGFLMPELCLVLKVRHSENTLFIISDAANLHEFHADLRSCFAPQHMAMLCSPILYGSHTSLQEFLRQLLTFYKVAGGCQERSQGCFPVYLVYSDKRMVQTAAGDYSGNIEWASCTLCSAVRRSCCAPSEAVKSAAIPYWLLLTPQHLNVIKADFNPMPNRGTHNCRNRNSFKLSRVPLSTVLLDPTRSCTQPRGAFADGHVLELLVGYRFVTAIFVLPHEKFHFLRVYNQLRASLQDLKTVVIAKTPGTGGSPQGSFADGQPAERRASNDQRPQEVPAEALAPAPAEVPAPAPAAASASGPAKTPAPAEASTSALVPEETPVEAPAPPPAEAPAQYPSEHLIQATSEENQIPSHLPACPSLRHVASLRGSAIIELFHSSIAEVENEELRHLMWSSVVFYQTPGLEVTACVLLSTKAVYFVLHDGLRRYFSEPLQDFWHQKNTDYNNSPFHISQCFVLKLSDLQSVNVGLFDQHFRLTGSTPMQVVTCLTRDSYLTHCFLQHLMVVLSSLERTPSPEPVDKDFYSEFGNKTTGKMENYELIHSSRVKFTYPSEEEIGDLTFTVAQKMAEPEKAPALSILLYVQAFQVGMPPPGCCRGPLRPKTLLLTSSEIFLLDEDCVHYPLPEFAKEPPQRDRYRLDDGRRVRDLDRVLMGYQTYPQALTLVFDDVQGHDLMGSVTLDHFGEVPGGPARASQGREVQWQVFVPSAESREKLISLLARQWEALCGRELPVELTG
Substance-K receptor, sequence (P21452 whole entry): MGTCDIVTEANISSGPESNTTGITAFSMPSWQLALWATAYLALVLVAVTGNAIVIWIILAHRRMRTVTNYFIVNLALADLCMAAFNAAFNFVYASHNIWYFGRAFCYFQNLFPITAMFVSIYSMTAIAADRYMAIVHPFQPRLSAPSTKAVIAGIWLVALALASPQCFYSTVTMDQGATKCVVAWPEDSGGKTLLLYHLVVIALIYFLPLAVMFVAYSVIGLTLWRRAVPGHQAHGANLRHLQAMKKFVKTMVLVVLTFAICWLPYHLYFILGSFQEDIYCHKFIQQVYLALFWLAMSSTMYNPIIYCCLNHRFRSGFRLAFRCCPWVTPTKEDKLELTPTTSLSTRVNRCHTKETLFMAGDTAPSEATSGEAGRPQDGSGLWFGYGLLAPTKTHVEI
Muscarinic acetylcholine receptor M3, sequence (P20309 whole entry, looked up): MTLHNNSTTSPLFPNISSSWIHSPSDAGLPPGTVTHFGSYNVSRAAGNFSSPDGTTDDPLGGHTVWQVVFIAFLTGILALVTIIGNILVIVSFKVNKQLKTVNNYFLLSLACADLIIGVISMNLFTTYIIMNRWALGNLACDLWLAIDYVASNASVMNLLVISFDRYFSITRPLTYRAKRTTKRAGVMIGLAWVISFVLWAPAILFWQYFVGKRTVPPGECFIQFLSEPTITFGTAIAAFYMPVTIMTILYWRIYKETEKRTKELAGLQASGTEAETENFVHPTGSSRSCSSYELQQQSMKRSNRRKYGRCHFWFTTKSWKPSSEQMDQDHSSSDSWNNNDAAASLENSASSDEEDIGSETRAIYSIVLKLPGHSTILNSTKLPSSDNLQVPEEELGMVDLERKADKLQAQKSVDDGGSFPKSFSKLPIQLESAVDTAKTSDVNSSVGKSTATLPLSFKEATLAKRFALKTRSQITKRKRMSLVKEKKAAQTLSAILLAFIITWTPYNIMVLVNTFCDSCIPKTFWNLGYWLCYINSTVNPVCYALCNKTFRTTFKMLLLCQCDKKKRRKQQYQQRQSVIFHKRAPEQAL
Melanocortin receptor 4, sequence (P32245 whole entry): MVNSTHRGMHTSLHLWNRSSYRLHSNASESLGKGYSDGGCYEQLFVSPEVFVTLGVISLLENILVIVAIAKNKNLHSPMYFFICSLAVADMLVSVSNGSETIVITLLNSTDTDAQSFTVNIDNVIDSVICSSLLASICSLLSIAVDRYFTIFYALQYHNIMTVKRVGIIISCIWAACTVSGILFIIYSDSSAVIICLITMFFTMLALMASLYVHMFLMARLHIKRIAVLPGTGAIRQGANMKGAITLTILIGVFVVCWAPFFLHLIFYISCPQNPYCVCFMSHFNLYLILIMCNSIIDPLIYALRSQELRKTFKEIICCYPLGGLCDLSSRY
Alpha-2A adrenergic receptor, sequence (P08913 whole entry): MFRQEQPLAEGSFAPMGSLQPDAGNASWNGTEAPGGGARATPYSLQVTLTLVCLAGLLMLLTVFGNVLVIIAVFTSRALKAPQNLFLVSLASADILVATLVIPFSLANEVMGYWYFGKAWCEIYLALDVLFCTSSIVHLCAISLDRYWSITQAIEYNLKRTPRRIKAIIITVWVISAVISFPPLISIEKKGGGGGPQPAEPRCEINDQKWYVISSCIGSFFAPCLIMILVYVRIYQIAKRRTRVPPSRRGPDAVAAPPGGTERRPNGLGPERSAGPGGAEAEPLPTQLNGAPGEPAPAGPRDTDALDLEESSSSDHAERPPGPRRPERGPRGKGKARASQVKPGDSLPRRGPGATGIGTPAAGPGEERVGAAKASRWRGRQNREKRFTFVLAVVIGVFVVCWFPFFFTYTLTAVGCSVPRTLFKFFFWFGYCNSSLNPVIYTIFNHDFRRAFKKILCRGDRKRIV
5-hydroxytryptamine receptor 2A, sequence (P28223 whole entry): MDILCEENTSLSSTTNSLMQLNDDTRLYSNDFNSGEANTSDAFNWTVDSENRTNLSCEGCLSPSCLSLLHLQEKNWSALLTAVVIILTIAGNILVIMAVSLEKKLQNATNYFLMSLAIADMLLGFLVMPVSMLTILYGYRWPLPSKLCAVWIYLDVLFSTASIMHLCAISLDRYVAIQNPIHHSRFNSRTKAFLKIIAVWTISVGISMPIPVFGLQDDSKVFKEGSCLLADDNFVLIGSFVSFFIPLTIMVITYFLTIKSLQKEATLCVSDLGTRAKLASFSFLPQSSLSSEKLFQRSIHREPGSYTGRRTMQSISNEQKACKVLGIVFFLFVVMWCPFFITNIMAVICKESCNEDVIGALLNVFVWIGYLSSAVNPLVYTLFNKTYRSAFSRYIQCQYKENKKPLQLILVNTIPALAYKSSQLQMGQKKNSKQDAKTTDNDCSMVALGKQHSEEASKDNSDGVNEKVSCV

SMILES: O=C(Cc1ccccc1)NC1CCN(CCCN2C(=O)COc3ccccc32)CC1
- pKi (Nischarin): ≤ 6.00
- Activity (Mus musculus): Active
- QH (Rattus norvegicus): 20 mL/min
- Tmax [1]: 48 min
- pKi [2]: ≤ 6.00
- pKi (Substance-K receptor): ≤ 6.00
- Emax [3]: 6%
- pKi (Melanocortin receptor 4): ≤ 6.00
- pKi [4]: 5.16
- fraction unbound at 1 h, 0.1 µM [5]: 0.48
- Emax [6]: 1%
- pKi [7]: ≤ 6.00
- Emax [8]: 0%
- pKi [9]: ≤ 6.00
- pKi [10]: ≤ 6.00
- CL (Hepatocyte): 3.4 L/min
- Emax [11]: 1%
- pKi [12]: ≤ 6.00
- pKi (Substance-P receptor): ≤ 6.00
- Kp [13]: 0.2
- pKi [14]: 6.04
- pKi [15]: ≤ 6.00
- pKi [16]: ≤ 6.00
- pKi [17]: ≤ 6.00
- pKi [18]: ≤ 6.00
